Source: ChEMBL document CHEMBL1828590 (J Med Chem, 2011)

What was measured:
[1] = tested on: HCT-116; assay: Antitumor activity against human HCT116 cells xenografted in nude BALB/c mouse assessed as tumor growth inhibition at 100 mg/kg, po qd for 21 days measured on day 18; assay type: functional; conditions: read-out: TGI
[2] = tested on: Mus musculus; assay: Toxicity in nude BALB/c mouse xenografted with human Ramos cells assessed as maximum body weight loss at 50 mg/kg, po QD for 21 days measured on day 12; assay type: organism-based; design: dose 50 mg/kg, route oral; conditions: in vivo, 504 h
[3] = tested on: PC-3; assay: Antitumor activity against human PC3 cells xenografted in nude BALB/c mouse assessed as tumor growth inhibition at 50 mg/kg, po qd for 21 days measured on day 22; assay type: functional; conditions: read-out: TGI
[4] = tested on: Mus musculus; assay: Toxicity in nude BALB/c mouse xenografted with human MV4-11 cells assessed as maximum body weight loss at 50 mg/kg, po QD for 21 days measured on day 19; assay type: organism-based; design: dose 50 mg/kg, route oral; conditions: in vivo, 504 h
[5] = Time required for attaining concentration above IC50 of HCT116 in tumor of nude BALB/c mouse xenografted with HCT116 cells at 100 mg/kg, po administered as single dose; assay type: ADME, organism-based, Neoplasm, HCT-116; design: dose 100 mg/kg, route oral; conditions: in vivo
[6] = AUC (0 to infinity) in Beagle dog at 10 mg/kg, po; assay type: ADME, organism-based, Canis lupus familiaris; design: time infinity, dose 10 mg/kg, route oral; conditions: plasma
[7] = tested on: Mus musculus; assay: Toxicity in nude BALB/c mouse xenografted with human A2780 cells assessed as maximum body weight loss at 50 mg/kg, po QD for 21 days measured on day 13; assay type: organism-based; design: dose 50 mg/kg, route oral; conditions: in vivo, 504 h
[8] = Half life in dog liver microsomes; assay type: ADME, Canis lupus familiaris, Microsome
[9] = Tmax in Beagle dog at 10 mg/kg, po; assay type: ADME, organism-based, Canis lupus familiaris; design: dose 10 mg/kg, route oral; conditions: in vivo
[10] = AUC (0 to infinity) in nude BALB/c mouse at 50 mg/kg, po; assay type: ADME, organism-based; design: time infinity, dose 50 mg/kg, route oral; conditions: plasma
[11] = target: Voltage-gated inwardly rectifying potassium channel KCNH2 (Homo sapiens, UniProt Q12809); assay: Displacement of [3H]-dofetilide from human ERG receptor at 10 uM
Voltage-gated inwardly rectifying potassium channel KCNH2, sequence (Q12809 whole entry): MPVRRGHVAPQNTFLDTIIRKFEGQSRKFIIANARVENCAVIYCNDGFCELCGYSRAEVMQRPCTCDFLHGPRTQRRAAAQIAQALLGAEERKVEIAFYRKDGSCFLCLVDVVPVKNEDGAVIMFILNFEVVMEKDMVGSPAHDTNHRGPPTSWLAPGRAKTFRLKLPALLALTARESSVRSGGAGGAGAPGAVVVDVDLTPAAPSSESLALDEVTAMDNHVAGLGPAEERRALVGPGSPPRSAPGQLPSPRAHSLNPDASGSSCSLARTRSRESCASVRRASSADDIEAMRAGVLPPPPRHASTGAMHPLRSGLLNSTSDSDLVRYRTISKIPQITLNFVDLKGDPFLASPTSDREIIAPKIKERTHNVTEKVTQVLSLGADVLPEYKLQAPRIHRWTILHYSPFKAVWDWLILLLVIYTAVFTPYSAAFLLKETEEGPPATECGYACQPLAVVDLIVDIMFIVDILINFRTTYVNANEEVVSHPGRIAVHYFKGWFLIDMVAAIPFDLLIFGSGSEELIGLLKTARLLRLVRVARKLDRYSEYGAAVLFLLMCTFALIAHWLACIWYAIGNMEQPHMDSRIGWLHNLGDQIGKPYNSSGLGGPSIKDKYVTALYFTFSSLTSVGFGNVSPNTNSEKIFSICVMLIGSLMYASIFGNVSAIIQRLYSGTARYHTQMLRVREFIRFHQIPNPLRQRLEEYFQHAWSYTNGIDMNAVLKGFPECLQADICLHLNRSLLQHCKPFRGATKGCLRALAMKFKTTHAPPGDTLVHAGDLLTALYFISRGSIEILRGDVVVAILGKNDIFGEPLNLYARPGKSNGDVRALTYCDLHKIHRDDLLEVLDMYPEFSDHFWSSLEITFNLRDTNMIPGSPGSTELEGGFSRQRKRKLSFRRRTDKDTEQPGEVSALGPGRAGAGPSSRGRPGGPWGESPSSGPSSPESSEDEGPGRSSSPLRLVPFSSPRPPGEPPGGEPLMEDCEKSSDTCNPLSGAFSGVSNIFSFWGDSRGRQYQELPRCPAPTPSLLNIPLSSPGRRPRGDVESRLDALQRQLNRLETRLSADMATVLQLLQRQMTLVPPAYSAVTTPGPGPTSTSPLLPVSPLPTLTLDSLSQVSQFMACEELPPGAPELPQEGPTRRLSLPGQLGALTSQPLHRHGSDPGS

[12] = Solubility of the compound in phosphate buffer at pH 4.5; assay type: physicochemical
[13] = Half life in mouse liver microsomes; assay type: ADME, Microsome; conditions: liver microsomes
[14] = Apparent oral clearance in Beagle dog at 10 mg/kg, po; assay type: ADME, organism-based, Canis lupus familiaris; design: dose 10 mg/kg, route oral; conditions: in vivo
[15] = Tmax in nude BALB/c mouse at 50 mg/kg, po; assay type: ADME, organism-based; design: dose 50 mg/kg, route oral; conditions: in vivo
[16] = Half life in human liver microsomes; assay type: ADME, Microsome
[17] = Apparent oral clearance in Wistar rat at 2 mg/kg, iv; assay type: ADME, organism-based; design: dose 2 mg/kg; conditions: in vivo
[18] = tested on: Mus musculus; assay: Toxicity in nude BALB/c mouse xenografted with human HCT116 cells assessed as mouse survival at 100 mg/kg, po QD for 21 days measured on day 22; assay type: organism-based, HCT-116; design: dose 100 mg/kg, route oral; conditions: in vivo, 504 h
[19] = tested on: Mus musculus; assay: Toxicity in nude BALB/c mouse xenografted with human A2780 cells assessed as maximum body weight loss at 100 mg/kg, po QD for 21 days measured on day 20; assay type: organism-based; design: dose 100 mg/kg, route oral; conditions: in vivo, 504 h
[20] = tested on: Ramos; assay: Antiproliferative activity against human Ramos cells; assay type: functional, cell-based
[21] = Kinetic solubility of the compound at pH 7 with […] DMSO; assay type: physicochemical; conditions: buffer, read-out: Kinetic_solubility
[22] = Apparent oral clearance in Wistar rat at 10 mg/kg, po; assay type: ADME, organism-based; design: dose 10 mg/kg, route oral; conditions: in vivo
[23] = tested on: Mus musculus; assay: Toxicity in nude BALB/c mouse xenografted with human MV4-11 cells assessed as mortality at 50 mg/kg, po QD for 21 days measured on day 21; assay type: organism-based; design: dose 50 mg/kg, route oral; conditions: in vivo, 504 h
[24] = AUC (0 to infinity) in Beagle dog at 2 mg/kg, iv; assay type: ADME, organism-based, Canis lupus familiaris; design: time infinity, dose 2 mg/kg, route intravenous; conditions: plasma

CCCCc1nc2cc(/C=C/C(=O)NO)ccc2n1CCN(CC)CC.Cl.Cl
inhibition in vivo at 100 mg/kg [1]: 98%
Activity [2]: 3.7%
inhibition in vivo at 50 mg/kg [3]: 66%
Activity [4]: 7.1%
Time [5]: 7.1 h
AUC(0-inf) [6]: 10.5 µM·h
Activity [7]: 8.9%
half-life [8]: > 60 min
Tmax [9]: 45 min
AUC(0-inf) [10]: 4.27 µM·h
inhibition (INH) [11]: Not Active
solubility [12]: > 50 mg/mL
half-life [13]: 27 min
CL/F [14]: 38.2 mL/min/kg
Tmax [15]: 10.2 min
half-life [16]: > 60 min
CL/F [17]: 74.2 mL/min/kg
Activity [18]: Non-toxic
Activity [19]: 20%
IC50 [20]: 140 nM
solubility kinetic [21]: > 200 µM
CL/F [22]: 2550 mL/min/kg
Activity [23]: Non-toxic
AUC(0-inf) [24]: 3.22 µM·h
